ChEMBL document CHEMBL3826966, “A chromatography-free isolation of rohitukine from leaves of Dysoxylum binectariferum: Evaluation for in vitro cytotoxicity, Cdk inhibition and physicochemical properties” (Bioorg Med Chem Lett, 2016)
Values after ≈ are worked out from the molar mass of the structure shown.

How the values were obtained:
[1] = Thermodynamic equilibrium solubility in stimulated gastric fluid at 120 ug/ml at pH 1.2 by HPLC analysis; assay type: ADME; details: simulated gastric fluid, read-out: Therm_solubility
[2] = target: Serine/threonine-protein kinase Chk1 (Homo sapiens) (UniProt O14757); assay: Inhibition of human CHK1 (1 to 476 residues) assessed as remaining enzyme activity at 50 uM after 30 mins by 33P-ATP filter-binding assay
[3] = Cell cycle arrest in human HL60 cells assessed as accumulation at S phase at 1 uM (reference value: 36 %); assay type: functional, cell-based; details: HL-60
[4] = Cell cycle arrest in human HL60 cells assessed as accumulation at G1 phase at 1 uM (reference value: 59 %); assay type: functional, cell-based; details: HL-60
T47D = assay: Cytotoxicity against human T47D cells assessed as cell growth inhibition after 48 hrs by MTT assay; assay type: functional
[5] = Stability in pH 1.2 buffer at 120 ug/ml after 8 hrs by RP-HPLC analysis; assay type: physicochemical; details: pH 1.2, 8 h
[6] = target: Tyrosine-protein kinase ZAP-70 (Homo sapiens) (UniProt P43403); assay: Inhibition of human ZAP70 (1 to 619 residues) assessed as remaining enzyme activity at 50 uM after 30 mins by 33P-ATP filter-binding assay
[7] = target: Aurora kinase B (Homo sapiens) (UniProt Q96GD4); assay: Inhibition of human Aurora B (1 to 344 residues) assessed as remaining enzyme activity at 50 uM after 30 mins by 33P-ATP filter-binding assay
[8] = target: Mitogen-activated protein kinase 11 (Homo sapiens) (UniProt Q15759); assay: Inhibition of human p38beta MAPK (1 to 364 residues) assessed as remaining enzyme activity at 50 uM after 30 mins by 33P-ATP filter-binding assay
MAP4K2 = assay: Inhibition of human GCK (2 to 812 residues) assessed as remaining enzyme activity at 50 uM after 30 mins by 33P-ATP filter-binding assay
[9] = target: Tyrosine-protein kinase BTK (Homo sapiens) (UniProt Q06187); assay: Inhibition of human BTK (2 to 659 residues) assessed as remaining enzyme activity at 50 uM after 30 mins by 33P-ATP filter-binding assay
[10] = target: Myosin light chain kinase, smooth muscle (Homo sapiens) (UniProt Q15746); assay: Inhibition of human SmMLCK (475 to 838 residues) assessed as remaining enzyme activity at 50 uM after 30 mins by 33P-ATP filter-binding assay
[11] = Cell cycle arrest in human HL60 cells assessed as accumulation at G2 phase at 1 uM (reference value: 5 %); assay type: functional, cell-based; details: HL-60
[12] = target: Vascular endothelial growth factor receptor (Homo sapiens) (UniProt P17948+P35916+P35968); assay: Inhibition of human VEGFR assessed as remaining enzyme activity at 50 uM after 30 mins by 33P-ATP filter-binding assay; assay type: protein assay
[13] = target: MAP/microtubule affinity-regulating kinase 4 (Homo sapiens) (UniProt Q96L34); assay: Inhibition of human MARK4 (2 to 752 residues) assessed as remaining enzyme activity at 50 uM after 30 mins by 33P-ATP filter-binding assay
[14] = target: Serine/threonine-protein kinase 16 (Homo sapiens) (UniProt O75716); assay: Inhibition of human MPSK1 (1 to 305 residues) assessed as remaining enzyme activity at 50 uM after 30 mins by 33P-ATP filter-binding assay
[15] = target: Serine/threonine-protein kinase Nek6 (Homo sapiens) (UniProt Q9HC98); assay: Inhibition of human NEK6 (8 to 313 residues) assessed as remaining enzyme activity at 50 uM after 30 mins by 33P-ATP filter-binding assay
[16] = target: T1, CDK9/cyclin T1 (Homo sapiens) (UniProt O60563+P50750); assay: Inhibition of human Cdk9/T1 using YSPTSPSYSPTSPSYSPTSPKKK peptide as substrate assessed as remaining enzyme activity at 50 uM after 30 mins by 33P-ATP filter-binding assay; assay type: protein-complex assay
[17] = target: Serine/threonine-protein kinase MARK1 (Homo sapiens) (UniProt Q9P0L2); assay: Inhibition of human MARK1 (2 to 795 residues) assessed as remaining enzyme activity at 50 uM after 30 mins by 33P-ATP filter-binding assay
[18] = target: Proto-oncogene tyrosine-protein kinase Src (Homo sapiens) (UniProt P12931); assay: Inhibition of human Src (1 to 536 residues) assessed as remaining enzyme activity at 50 uM after 30 mins by 33P-ATP filter-binding assay
[19] = target: Ribosomal protein S6 kinase beta-1 (Homo sapiens) (UniProt P23443); assay: Inhibition of human S6K1 assessed as remaining enzyme activity at 50 uM after 30 mins by 33P-ATP filter-binding assay
[20] = target: Casein kinase II (Homo sapiens) (UniProt P67870+P68400+P19784); assay: Inhibition of human CK2 assessed as remaining enzyme activity at 50 uM after 30 mins by 33P-ATP filter-binding assay; assay type: protein-complex assay
[21] = target: Ribosomal protein S6 kinase alpha-5 (Homo sapiens) (UniProt O75582); assay: Inhibition of human MSK1 (2 to 802 residues) assessed as remaining enzyme activity at 50 uM after 30 mins by 33P-ATP filter-binding assay
[22] = target: Protein kinase C gamma type (Homo sapiens) (UniProt P05129); assay: Inhibition of human PKCgamma (1 to 697 residues) assessed as remaining enzyme activity at 50 uM after 30 mins by 33P-ATP filter-binding assay
[23] = target: Tyrosine-protein kinase Yes (Homo sapiens) (UniProt P07947); assay: Inhibition of human YES1 (1 to 543 residues) assessed as remaining enzyme activity at 50 uM after 30 mins by 33P-ATP filter-binding assay
[24] = target: Homeodomain-interacting protein kinase 1 (Homo sapiens) (UniProt Q86Z02); assay: Inhibition of human HIPK1 (158 to 555 residues) assessed as remaining enzyme activity at 50 uM after 30 mins by 33P-ATP filter-binding assay
[25] = target: Serine/threonine-protein kinase STK11 (Homo sapiens) (UniProt Q15831); assay: Inhibition of human LKB1 (1 to 433 residues) assessed as remaining enzyme activity at 50 uM after 30 mins by 33P-ATP filter-binding assay
[26] = target: T1, CDK9/cyclin T1 (Homo sapiens); assay: Inhibition of human Cdk9/T1 using YSPTSPSYSPTSPSYSPTSPKKK peptide as substrate at 0.5 uM after 30 mins by 33P-ATP filter-binding assay; assay type: protein-complex assay
[27] = target: MAP kinase-activated protein kinase 3 (Homo sapiens) (UniProt Q16644); assay: Inhibition of human MAPKAPK3 assessed as remaining enzyme activity at 50 uM after 30 mins by 33P-ATP filter-binding assay
[28] = target: Misshapen-like kinase 1 (Homo sapiens) (UniProt Q8N4C8); assay: Inhibition of human MINK1 (1 to 320 residues) assessed as remaining enzyme activity at 50 uM after 30 mins by 33P-ATP filter-binding assay
[29] = target: MAP kinase-activated protein kinase 2 (Homo sapiens) (UniProt P49137); assay: Inhibition of human MAPKAPK2 assessed as remaining enzyme activity at 50 uM after 30 mins by 33P-ATP filter-binding assay

Homeodomain-interacting protein kinase 1 (Homo sapiens), sequence (Q86Z02 whole entry, looked up, the tested form may be a part): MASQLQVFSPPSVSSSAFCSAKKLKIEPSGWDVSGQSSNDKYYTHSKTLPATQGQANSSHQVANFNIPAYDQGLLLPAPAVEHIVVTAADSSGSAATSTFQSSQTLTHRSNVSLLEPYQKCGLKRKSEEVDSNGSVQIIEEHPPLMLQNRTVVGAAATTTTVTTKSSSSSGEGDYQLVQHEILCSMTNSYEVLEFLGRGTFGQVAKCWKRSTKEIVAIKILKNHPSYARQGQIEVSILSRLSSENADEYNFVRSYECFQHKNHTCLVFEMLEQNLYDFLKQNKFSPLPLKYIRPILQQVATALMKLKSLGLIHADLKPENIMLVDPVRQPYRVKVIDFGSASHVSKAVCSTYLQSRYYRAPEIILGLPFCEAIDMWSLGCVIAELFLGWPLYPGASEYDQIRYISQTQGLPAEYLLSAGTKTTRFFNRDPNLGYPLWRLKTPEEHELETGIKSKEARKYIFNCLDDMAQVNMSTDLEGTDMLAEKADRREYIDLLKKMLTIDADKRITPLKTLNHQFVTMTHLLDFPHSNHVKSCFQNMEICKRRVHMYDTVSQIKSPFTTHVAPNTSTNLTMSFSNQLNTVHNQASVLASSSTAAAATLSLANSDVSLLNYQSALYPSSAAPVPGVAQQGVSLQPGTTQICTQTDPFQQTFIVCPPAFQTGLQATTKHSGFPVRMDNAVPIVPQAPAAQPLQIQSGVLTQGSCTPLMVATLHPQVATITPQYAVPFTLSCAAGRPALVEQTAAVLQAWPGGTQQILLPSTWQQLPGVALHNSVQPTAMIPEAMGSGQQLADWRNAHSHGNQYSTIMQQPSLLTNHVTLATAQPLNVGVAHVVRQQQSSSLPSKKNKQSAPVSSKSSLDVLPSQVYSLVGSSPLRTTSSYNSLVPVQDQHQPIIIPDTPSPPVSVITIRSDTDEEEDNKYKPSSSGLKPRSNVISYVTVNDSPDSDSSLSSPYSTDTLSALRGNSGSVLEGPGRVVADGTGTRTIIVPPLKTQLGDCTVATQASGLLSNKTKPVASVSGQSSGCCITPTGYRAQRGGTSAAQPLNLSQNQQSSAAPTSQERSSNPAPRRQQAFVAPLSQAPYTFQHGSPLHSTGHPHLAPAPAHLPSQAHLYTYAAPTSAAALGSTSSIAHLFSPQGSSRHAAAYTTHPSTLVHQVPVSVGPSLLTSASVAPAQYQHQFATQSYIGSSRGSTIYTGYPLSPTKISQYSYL
Mitogen-activated protein kinase 11 (Homo sapiens), sequence (Q15759 whole entry, the tested form may be a part): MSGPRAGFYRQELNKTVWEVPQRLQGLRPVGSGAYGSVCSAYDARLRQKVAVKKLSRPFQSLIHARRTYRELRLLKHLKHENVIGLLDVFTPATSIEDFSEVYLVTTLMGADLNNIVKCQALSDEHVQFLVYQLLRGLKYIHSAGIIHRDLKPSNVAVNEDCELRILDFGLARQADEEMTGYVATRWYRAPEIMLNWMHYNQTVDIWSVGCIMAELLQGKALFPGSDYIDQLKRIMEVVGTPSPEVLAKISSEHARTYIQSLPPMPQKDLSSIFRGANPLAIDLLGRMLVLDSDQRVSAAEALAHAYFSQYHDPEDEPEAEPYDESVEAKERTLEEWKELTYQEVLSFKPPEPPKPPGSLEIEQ
MAP/microtubule affinity-regulating kinase 4 (Homo sapiens), sequence (Q96L34 whole entry, the tested form may be a part): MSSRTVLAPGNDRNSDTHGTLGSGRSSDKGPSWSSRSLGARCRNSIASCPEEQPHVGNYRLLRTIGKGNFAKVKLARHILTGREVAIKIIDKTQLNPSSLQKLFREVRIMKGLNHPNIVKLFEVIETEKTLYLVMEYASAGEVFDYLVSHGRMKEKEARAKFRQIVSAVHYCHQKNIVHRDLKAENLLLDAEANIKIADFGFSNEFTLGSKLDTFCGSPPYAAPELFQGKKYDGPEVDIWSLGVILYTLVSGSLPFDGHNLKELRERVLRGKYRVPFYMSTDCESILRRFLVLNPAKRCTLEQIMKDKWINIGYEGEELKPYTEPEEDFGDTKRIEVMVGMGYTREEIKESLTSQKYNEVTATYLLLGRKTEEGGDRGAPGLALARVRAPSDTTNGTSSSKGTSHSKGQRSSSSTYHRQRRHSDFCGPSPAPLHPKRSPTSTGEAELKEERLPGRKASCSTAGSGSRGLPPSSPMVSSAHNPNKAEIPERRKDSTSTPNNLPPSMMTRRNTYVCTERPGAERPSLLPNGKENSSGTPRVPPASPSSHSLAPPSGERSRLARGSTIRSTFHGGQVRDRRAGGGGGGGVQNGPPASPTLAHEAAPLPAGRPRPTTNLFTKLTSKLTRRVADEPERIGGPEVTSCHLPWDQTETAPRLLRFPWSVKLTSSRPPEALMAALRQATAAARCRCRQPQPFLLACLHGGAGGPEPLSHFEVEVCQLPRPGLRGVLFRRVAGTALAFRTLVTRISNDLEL
Ribosomal protein S6 kinase alpha-5 (Homo sapiens), sequence (O75582 whole entry, looked up, the tested form may be a part): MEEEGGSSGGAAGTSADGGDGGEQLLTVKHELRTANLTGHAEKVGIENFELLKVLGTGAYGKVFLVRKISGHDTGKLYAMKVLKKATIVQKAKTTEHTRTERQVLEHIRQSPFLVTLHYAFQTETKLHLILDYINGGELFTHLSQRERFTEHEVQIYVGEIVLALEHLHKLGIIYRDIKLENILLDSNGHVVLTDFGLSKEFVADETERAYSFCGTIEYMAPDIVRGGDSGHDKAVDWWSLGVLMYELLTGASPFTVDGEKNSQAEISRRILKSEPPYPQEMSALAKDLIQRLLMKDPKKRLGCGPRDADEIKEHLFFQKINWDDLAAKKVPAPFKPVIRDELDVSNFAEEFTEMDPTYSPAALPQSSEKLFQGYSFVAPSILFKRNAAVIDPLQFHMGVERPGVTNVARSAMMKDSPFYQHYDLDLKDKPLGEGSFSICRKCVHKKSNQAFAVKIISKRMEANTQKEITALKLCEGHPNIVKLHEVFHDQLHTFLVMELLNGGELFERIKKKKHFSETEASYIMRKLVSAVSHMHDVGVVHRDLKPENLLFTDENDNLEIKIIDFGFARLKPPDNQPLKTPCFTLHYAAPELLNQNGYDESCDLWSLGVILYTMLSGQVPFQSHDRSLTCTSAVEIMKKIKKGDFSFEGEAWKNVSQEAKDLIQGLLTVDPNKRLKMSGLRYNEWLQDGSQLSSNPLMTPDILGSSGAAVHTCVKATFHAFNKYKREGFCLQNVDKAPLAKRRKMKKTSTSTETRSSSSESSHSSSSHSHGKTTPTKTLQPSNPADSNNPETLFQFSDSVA
Serine/threonine-protein kinase 16 (Homo sapiens), sequence (O75716 whole entry, the tested form may be a part): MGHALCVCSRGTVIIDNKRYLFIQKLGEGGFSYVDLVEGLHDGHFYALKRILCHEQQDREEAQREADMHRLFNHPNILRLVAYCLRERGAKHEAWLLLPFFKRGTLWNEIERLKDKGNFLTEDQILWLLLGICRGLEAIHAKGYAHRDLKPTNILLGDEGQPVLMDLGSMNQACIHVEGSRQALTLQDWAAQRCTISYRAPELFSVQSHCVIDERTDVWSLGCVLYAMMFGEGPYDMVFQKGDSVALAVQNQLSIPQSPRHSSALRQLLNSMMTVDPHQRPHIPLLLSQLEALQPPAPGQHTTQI
Serine/threonine-protein kinase Nek6 (Homo sapiens), sequence (Q9HC98 whole entry, the tested form may be a part): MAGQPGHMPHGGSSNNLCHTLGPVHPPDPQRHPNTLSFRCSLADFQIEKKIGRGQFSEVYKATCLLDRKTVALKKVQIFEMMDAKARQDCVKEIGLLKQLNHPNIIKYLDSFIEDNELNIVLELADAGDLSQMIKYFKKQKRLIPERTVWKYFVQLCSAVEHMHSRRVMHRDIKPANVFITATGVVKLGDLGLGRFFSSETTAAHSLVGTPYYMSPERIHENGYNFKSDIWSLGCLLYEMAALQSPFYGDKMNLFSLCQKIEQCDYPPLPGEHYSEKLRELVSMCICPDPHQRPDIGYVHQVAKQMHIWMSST
Ribosomal protein S6 kinase beta-1 (Homo sapiens), sequence (P23443 whole entry, looked up): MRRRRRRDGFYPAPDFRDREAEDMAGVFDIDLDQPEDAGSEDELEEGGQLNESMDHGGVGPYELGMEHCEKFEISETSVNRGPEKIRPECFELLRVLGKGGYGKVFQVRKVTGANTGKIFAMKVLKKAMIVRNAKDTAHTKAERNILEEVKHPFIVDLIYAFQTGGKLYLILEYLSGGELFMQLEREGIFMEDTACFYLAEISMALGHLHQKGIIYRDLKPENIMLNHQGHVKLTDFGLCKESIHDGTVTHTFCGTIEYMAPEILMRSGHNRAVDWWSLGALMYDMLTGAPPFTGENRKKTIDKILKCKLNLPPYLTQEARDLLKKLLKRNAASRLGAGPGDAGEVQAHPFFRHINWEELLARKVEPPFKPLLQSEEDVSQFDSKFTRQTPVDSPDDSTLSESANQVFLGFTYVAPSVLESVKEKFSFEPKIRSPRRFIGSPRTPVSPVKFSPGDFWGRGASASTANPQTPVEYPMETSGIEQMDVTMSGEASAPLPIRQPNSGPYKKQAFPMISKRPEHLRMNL
Tyrosine-protein kinase BTK (Homo sapiens), sequence (Q06187 whole entry, the tested form may be a part): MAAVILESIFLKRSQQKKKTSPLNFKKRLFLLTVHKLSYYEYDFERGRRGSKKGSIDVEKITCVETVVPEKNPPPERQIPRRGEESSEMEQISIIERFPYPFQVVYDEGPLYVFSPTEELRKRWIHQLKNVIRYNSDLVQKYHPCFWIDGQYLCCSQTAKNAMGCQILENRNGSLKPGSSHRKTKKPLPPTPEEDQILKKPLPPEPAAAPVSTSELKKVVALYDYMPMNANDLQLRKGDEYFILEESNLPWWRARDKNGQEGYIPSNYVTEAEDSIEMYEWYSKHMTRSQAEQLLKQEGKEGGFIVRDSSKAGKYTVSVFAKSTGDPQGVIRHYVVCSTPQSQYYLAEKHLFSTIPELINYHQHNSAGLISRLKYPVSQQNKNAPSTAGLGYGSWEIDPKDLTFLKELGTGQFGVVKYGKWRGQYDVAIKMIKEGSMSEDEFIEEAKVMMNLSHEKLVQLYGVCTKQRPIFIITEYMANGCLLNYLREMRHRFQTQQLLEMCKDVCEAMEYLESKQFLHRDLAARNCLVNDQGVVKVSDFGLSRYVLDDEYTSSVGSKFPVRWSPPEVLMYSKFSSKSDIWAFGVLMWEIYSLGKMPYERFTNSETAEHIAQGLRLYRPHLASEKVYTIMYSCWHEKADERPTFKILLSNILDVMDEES

With `Cc1cc(=O)c2c(O)cc(O)c([C@H]3CCN(C)C[C@H]3O)c2o1` [ROHITUKINE] the solubility thermodynamic [1] was 33.4 mg/mL (≈ 109 mM), the Activity [2] was 52% and the Activity [3] was 50%. The Activity [4] was 34%, the GI50 (T47D) was 24 µM and the Stability [5] was “Stable”. It also gave an Activity [6] of 103%, an Activity [7] of 58% and an Activity [8] of 76%. For the same compound, the Activity (MAP4K2) was 17%, the Activity [9] was 58% and the Activity [10] was 78%. It also gave an Activity [11] of 13%, an Activity [12] of 18% and an Activity [13] of 92%. For the same compound, the Activity [14] was 87%, the Activity [15] was 84% and the Activity [16] was 7%. The Activity [17] was 67%, the Activity [18] was 61% and the Activity [19] was 79%. It also gave an Activity [20] of 90%, an Activity [21] of 30% and an Activity [22] of 89%. The Activity [23] was 57%, the Activity [24] was 96% and the Activity [25] was 59%. The inhibition [26] was 75%, the Activity [27] was 83% and the Activity [28] was 73%. For the same compound, the Activity [29] was 52%.
